Test [1] relates to MLKL phosphorylation in HT29-L23 human colorectal adenocarcinoma cells. Nature of the test: MLKL Phosphorylation High-Content Assay. Format: cell-based. The following applies: 6 h, necroptosis induced with TNFα, SMAC mimetic and Z-VAD, read-out: pMLKL (IC50). The method in brief: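 HT29-L23 cells pretreated 30 min at 37 °C with compound (6.25 to 0.106 μM final), then necroptosis induced with TNFα 35 ng/mL, SMAC mimetic 700 nM and Z-VAD 140 nM for 6 h. Fixed cells immunostained for MLKL pS358 and imaged; IC50 and Ymax from 4-parameter logistic fit.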

For test [2], the target named is His-GST-TVMV-hRIPK1(1-324) (Homo sapiens (Human), UniProt Q13546). Nature of the test: RIPK1 HTRF Binding Assay. The note with it: HTRF binding, 1 h at rt, read-out: RIPK1 (IC50). An outline of the steps:
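HTRF probe-displacement binding: 1 nM His-GST-TVMV-hRIPK1(1-324) (baculovirus construct), 90.6 nM probe, 0.2 nM anti-GST-Tb in 20 mM HEPES, 10 mM MgCl2, 0.015% Brij-35, 4 mM DTT, 0.05 mg/mL BSA. Incubated 1 h at rt; FRET 520/495 nm ratio, inhibition relative to DMSO-only wells.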
On the technique in general: TR-FRET usually uses a lanthanide donor and a delayed reading to cut background.

Structures can show the parent of a compound that is named as a salt. Where two headings read alike, the source gives them in different places.

Experimental findings from patent US11440913B2, “Aminoimidazopyridazines as kinase inhibitors” (BRISTOL-MYERS SQUIBB COMPANY, priority 2017, dated 2022) are described below.

Broadly, the IC50 is the concentration at which inhibition is half-maximal.

His-GST-TVMV-hRIPK1(1-324), sequence (Q13546 1-324): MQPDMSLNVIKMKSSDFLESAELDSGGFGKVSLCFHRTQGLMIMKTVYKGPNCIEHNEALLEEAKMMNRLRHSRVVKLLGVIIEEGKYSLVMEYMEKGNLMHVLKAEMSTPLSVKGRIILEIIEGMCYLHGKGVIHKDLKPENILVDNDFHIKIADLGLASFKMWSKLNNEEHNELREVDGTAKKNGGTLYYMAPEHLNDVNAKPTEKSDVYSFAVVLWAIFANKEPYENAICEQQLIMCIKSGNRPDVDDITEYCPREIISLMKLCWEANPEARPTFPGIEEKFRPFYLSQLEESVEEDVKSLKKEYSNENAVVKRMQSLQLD

`[2H]C([2H])(Oc1c(F)cc(F)cc1CNC(=O)c1cc(-c2ccc3nc(NC(C)=O)c(C)n3n2)cnc1OC)C1CC1` [Example 259, N-({2-[cyclopropyl(deutero)methoxy]-3,5-difluorophenyl}methyl)-5-{2-acetamido-3-methylimidazo[1,2-b]pyridazin-6-yl}-2-methoxypyridine-3-carboxamide]: the figures for the IC50 in test [1] (Homo sapiens) and in test [2] were 13 nM and 3 nM, respectively.

For `COCC(=O)Nc1cn2nc(-c3cnc(OC)c(C(=O)NCc4cc(OCC5CC5)ccc4F)c3)ccc2n1` [Example 260, N-{[5-(cyclopropylmethoxy)-2-fluorophenyl]methyl}-2-methoxy-5-[2-(2-methoxyacetamido)imidazo[1,2-b]pyridazin-6-yl]pyridine-3-carboxamide], the IC50 in test [1] (Homo sapiens) is 80 nM; in test [2], 18 nM.

For `COCC(=O)Nc1cn2nc(-c3cnc(OC)c(C(=O)NCc4cc(F)cc(F)c4OCC4CC4)c3)ccc2n1` [Example 261, N-{[2-(cyclopropylmethoxy)-3,5-difluorophenyl]methyl}-2-methoxy-5-[2-(2-methoxyacetamido)imidazo[1,2-b]pyridazin-6-yl]pyridine-3-carboxamide, TFA], the results for the IC50 in test [1] and in test [2] were 8 nM and 7 nM, respectively.

Take `COCC(=O)Nc1cn2nc(-c3cnc(OC)c(C(=O)NCc4cc(OC(F)(F)F)ccc4F)c3)ccc2n1` [Example 262, N-{[2-fluoro-5-(trifluoromethoxy)phenyl]methyl}-2-methoxy-5-[2-(2-methoxyacetamido)imidazo[1,2-b]pyridazin-6-yl]pyridine-3-carboxamide]: the IC50 in test [1] (Homo sapiens) turned out to be 74 nM; in test [2], 39 nM.

As for `COc1ncc(-c2ccc3nc(NC(=O)C(C)C)cn3n2)cc1C(=O)NCc1ccccc1OC(F)(F)F` [Example 263, 2-methoxy-5-[2-(2-methylpropanamido)imidazo[1,2-b]pyridazin-6-yl]-N-{[2-(trifluoromethoxy)phenyl]-methyl}pyridine-3-carboxamide], the IC50 in test [1] (Homo sapiens) was found to be 38 nM; in test [2] it was 107 nM.

In the case of `COc1ncc(-c2ccc3nc(NC(=O)C(C)C)cn3n2)cc1C(=O)NCc1ccc(F)c(F)c1OCC1CC1` [Example 264, N-{[2-(cyclopropylmethoxy)-3,4-difluorophenyl]methyl}-2-methoxy-5-[2-(2-methylpropanamido)imidazo[1,2-b]pyridazin-6-yl]pyridine-3-carboxamide, TFA], the IC50 in test [1] stood at 240 nM; in test [2] it was 55 nM.

Take `COc1ncc(-c2ccc3nc(NC(=O)C(C)C)cn3n2)cc1C(=O)NCc1cc(F)cc(F)c1OC1CCOCC1` [Example 265, N-{[3,5-difluoro-2-(oxan-4-yloxy)phenyl]methyl}-2-methoxy-5-[2-(2-methylpropanamido)imidazo[1,2-b]pyridazin-6-yl]pyridine-3-carboxamide]: the IC50 in test [1] (Homo sapiens) worked out at 7 nM; in test [2], 3 nM.

With `[2H]C([2H])(Oc1c(F)cc(F)cc1CNC(=O)c1cc(-c2ccc3nc(NC(C)=O)cn3n2)cnc1Cl)C1CC1` [Example 266, 2-chloro-N-({2-[cyclopropyl(deutero)methoxy]-3,5-difluorophenyl}methyl)-5-{2-acetamidoimidazo[1,2-b]pyridazin-6-yl}pyridine-3-carboxamide, TFA], the IC50 amounted to 18 nM in test [1] (Homo sapiens) and 3 nM in test [2].

As for `CC(=O)Nc1cn2nc(-c3cnc(Cl)c(C(=O)NCC[C@H](O)c4ccc(Cl)cc4)c3)ccc2n1` [Example 267, 2-chloro-N-[(3S)-3-(4-chlorophenyl)-3-hydroxypropyl]-5-{2-acetamidoimidazo[1,2-b]pyridazin-6-yl}pyridine-3-carboxamide], the IC50 in test [1] (Homo sapiens) stood at 383 nM; in test [2], 81 nM.

Turning to `CC(=O)Nc1cn2nc(-c3cnc(Cl)c(C(=O)NC(C)c4ccccc4OC(F)(F)F)c3)ccc2n1` (stereo not shown) [Example 268, 2-chloro-5-{2-acetamidoimidazo[1,2-b]pyridazin-6-yl}-N-{1-[2-(trifluoromethoxy)phenyl]ethyl}pyridine-3-carboxamide], the IC50 in test [1] (Homo sapiens) worked out at 73 nM; in test [2], 46 nM.

`CC(=O)Nc1cn2nc(-c3cnc(Cl)c(C(=O)NC(C)c4cc(C(F)(F)F)ccc4F)c3)ccc2n1` (stereo not shown) [Example 269, 2-chloro-5-{2-acetamidoimidazo[1,2-b]pyridazin-6-yl}-N-{1-[2-fluoro-5-(trifluoromethyl)phenyl]ethyl}pyridine-3-carboxamide]: the IC50 in test [1] (Homo sapiens) stood at 209 nM; in test [2] it was 55 nM.

Take `CC(=O)Nc1cn2nc(-c3cnc(Cl)c(C(=O)NC(C)c4cc(C(F)(F)F)ccc4F)c3)ccc2n1` (stereo not shown) [Example 270, 2-chloro-5-{2-acetamidoimidazo[1,2-b]pyridazin-6-yl}-N-{1-[2-fluoro-5-(trifluoromethyl)phenyl]ethyl}pyridine-3-carboxamide]: the IC50 amounted to 204 nM in test [1] and 23 nM in test [2].

With `CC(=O)Nc1cn2nc(-c3cnc(Cl)c(C(=O)NC(C)c4ccccc4OC(F)(F)F)c3)ccc2n1` (stereo not shown) [Example 271, 2-chloro-5-{2-acetamidoimidazo[1,2-b]pyridazin-6-yl}-N-{1-[2-(trifluoromethoxy)phenyl]ethyl}pyridine-3-carboxamide], the IC50 is 129 nM in test [1] and 49 nM in test [2].

As to `CC(=O)Nc1cn2nc(-c3cnc(Cl)c(C(=O)NCc4cccc(OC(F)(F)F)c4)c3)ccc2n1` [Example 272, 2-chloro-5-{2-acetamidoimidazo[1,2-b]pyridazin-6-yl}-N-{[3-(trifluoromethoxy)phenyl]methyl}pyridine-3-carboxamide, TFA], the figures for the IC50 in test [1] and in test [2] were 122 nM and 26 nM, respectively.

Consider `CC(=O)Nc1cn2nc(-c3cnc(Cl)c(C(=O)NCc4cc(F)cc(F)c4OC(C)C4CCC4)c3)ccc2n1` (stereo not shown) [Example 273, 2-chloro-N-{[2-(1-cyclobutylethoxy)-3,5-difluorophenyl]methyl}-5-{2-acetamidoimidazo[1,2-b]pyridazin-6-yl}pyridine-3-carboxamide, TFA], for which the IC50 in test [1] (Homo sapiens) is 43 nM; in test [2], 4 nM.

On to `CC(=O)Nc1cn2nc(-c3cnc(Cl)c(C(=O)NCc4cc(C(F)(F)F)ccc4Cl)c3)ccc2n1` [Example 274, 2-chloro-N-{[2-chloro-5-(trifluoromethyl)phenyl]methyl}-5-{2-acetamidoimidazo[1,2-b]pyridazin-6-yl}pyridine-3-carboxamide, TFA], for which the IC50 in test [1] (Homo sapiens) was 31 nM; in test [2], 11 nM.

In the case of `CC(=O)Nc1cn2nc(-c3cnc(Cl)c(C(=O)NCc4cc(C(F)(F)F)ccc4F)c3)ccc2n1` [Example 275, 2-chloro-5-{2-acetamidoimidazo[1,2-b]pyridazin-6-yl}-N-{[2-fluoro-5-(trifluoromethyl)phenyl]methyl}pyridine-3-carboxamide], the IC50 in test [1] was 52 nM; in test [2], 32 nM.

Take `COc1nc(C)c(-c2ccc3nc(NC(C)=O)cn3n2)cc1C(=O)NC(C)c1cc(C(F)(F)F)ccc1F` (stereo not shown) [Example 276, 5-{2-acetamidoimidazo[1,2-b]pyridazin-6-yl}-N-{1-[2-fluoro-5-(trifluoromethyl)phenyl]ethyl}-2-methoxy-6-methylpyridine-3-carboxamide]: the results for the half-maximal inhibitory concentration (IC50) in test [1] and in test [2] were 39 nM and 28 nM, respectively.

In the case of `COc1nc(C)c(-c2ccc3nc(NC(C)=O)cn3n2)cc1C(=O)NC(C)c1cc(C(F)(F)F)ccc1F` (stereo not shown) [Example 277, 5-{2-acetamidoimidazo[1,2-b]pyridazin-6-yl}-N-{1-[2-fluoro-5-(trifluoromethyl)phenyl]ethyl}-2-methoxy-6-methylpyridine-3-carboxamide], the values for the IC50 in test [1] and in test [2] were 263 nM and 107 nM, respectively.

For `COc1nc(C)c(-c2ccc3nc(NC(C)=O)cn3n2)cc1C(=O)NC(C)c1cc(OC(F)(F)F)ccc1F` (stereo not shown) [Example 278, 5-{2-acetamidoimidazo[1,2-b]pyridazin-6-yl}-N-{1-[2-fluoro-5-(trifluoromethoxy)phenyl]ethyl}-2-methoxy-6-methylpyridine-3-carboxamide, TFA], the IC50 in test [1] (TFA) was found to be 64 nM; in test [2] (TFA), 6 nM.

On to `COc1nc(C)c(-c2ccc3nc(NC(C)=O)cn3n2)cc1C(=O)NC(C)c1cc(OC(F)(F)F)ccc1F` (stereo not shown) [Example 279, 5-{2-acetamidoimidazo[1,2-b]pyridazin-6-yl}-N-{1-[2-fluoro-5-(trifluoromethoxy)phenyl]ethyl}-2-methoxy-6-methylpyridine-3-carboxamide, TFA], for which the IC50 is 51 nM in test [1] (TFA) and 47 nM in test [2] (TFA).

As to `COc1nc(C)c(-c2ccc3nc(NC(C)=O)cn3n2)cc1C(=O)NCc1cc(F)cc(OC(F)(F)F)c1` [Example 280, 5-{2-acetamidoimidazo[1,2-b]pyridazin-6-yl}-N-{[3-fluoro-5-(trifluoromethoxy)phenyl]methyl}-2-methoxy-6-methylpyridine-3-carboxamide], the IC50 in test [1] (Homo sapiens) worked out at 36 nM; in test [2] it was 5 nM.

In the case of `COc1nc(C)c(-c2ccc3nc(NC(C)=O)cn3n2)cc1C(=O)N(C)Cc1cccc(OC(F)(F)F)c1` [Example 281, 5-{2-acetamidoimidazo[1,2-b]pyridazin-6-yl}-2-methoxy-N,6-dimethyl-N-{[3-(trifluoromethoxy)phenyl]methyl}pyridine-3-carboxamide], the results for the IC50 in test [1] (Homo sapiens) and in test [2] were 4 nM and 6 nM, respectively.
